According to US20260092071A1, “COMPOUNDS AND COMPOSITIONS AS SMARCA2/4 DEGRADERS AND USES THEREOF” (REGENTS OF THE UNIVERSITY OF MICHIGAN, priority 2022, published 2026):

Experiments:
SMARCA2 = SMARCA2 (Homo sapiens, UniProt P51531); assay: HiBit assay in engineered HT1080 CRISPR knock-in cell, 6 hrs (B series), SMARCA2; assay type: cell-based; settings: 6 hrs incubation; for DC50: HT1080 CRISPR knock-in cells, read-out: SMARC A2 HT1080 HiBit DC50; for Dmax: HT-1080, HT1080 CRISPR knock-in cells, read-out: SMARC A2 HT1080 HiBit Dmax (%)
Method in brief: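 Compounds were dispensed first, then HT1080 knock-in cells added and incubated for 6 hrs at 37° C. Next, detection reagent containing LgBiT and lytic substrate was added. Plates were shaken 10 min and centrifuged, and luminescence was measured.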

SMARCA4 = SMARCA4 (Homo sapiens, UniProt P51532); assay: HiBit assay in engineered HT1080 CRISPR knock-in cell, 6 hrs (B series), SMARCA4; assay type: cell-based; settings: 6 hrs incubation; for DC50: HT1080 CRISPR knock-in cells, read-out: SMARC A4 HT1080 HiBit DC50; for Dmax: HT-1080, HT1080 CRISPR knock-in cells, read-out: SMARC A4 HT1080 HiBit Dmax(%)
Method in brief: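 Protein abundance is measured in HiBiT-tagged HT1080 CRISPR knock-in cells after a 6 hr compound treatment (0.1% DMSO) by lytic Nano-Glo HiBiT luminescence.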

Sequence of SMARCA4 (P51532 whole entry): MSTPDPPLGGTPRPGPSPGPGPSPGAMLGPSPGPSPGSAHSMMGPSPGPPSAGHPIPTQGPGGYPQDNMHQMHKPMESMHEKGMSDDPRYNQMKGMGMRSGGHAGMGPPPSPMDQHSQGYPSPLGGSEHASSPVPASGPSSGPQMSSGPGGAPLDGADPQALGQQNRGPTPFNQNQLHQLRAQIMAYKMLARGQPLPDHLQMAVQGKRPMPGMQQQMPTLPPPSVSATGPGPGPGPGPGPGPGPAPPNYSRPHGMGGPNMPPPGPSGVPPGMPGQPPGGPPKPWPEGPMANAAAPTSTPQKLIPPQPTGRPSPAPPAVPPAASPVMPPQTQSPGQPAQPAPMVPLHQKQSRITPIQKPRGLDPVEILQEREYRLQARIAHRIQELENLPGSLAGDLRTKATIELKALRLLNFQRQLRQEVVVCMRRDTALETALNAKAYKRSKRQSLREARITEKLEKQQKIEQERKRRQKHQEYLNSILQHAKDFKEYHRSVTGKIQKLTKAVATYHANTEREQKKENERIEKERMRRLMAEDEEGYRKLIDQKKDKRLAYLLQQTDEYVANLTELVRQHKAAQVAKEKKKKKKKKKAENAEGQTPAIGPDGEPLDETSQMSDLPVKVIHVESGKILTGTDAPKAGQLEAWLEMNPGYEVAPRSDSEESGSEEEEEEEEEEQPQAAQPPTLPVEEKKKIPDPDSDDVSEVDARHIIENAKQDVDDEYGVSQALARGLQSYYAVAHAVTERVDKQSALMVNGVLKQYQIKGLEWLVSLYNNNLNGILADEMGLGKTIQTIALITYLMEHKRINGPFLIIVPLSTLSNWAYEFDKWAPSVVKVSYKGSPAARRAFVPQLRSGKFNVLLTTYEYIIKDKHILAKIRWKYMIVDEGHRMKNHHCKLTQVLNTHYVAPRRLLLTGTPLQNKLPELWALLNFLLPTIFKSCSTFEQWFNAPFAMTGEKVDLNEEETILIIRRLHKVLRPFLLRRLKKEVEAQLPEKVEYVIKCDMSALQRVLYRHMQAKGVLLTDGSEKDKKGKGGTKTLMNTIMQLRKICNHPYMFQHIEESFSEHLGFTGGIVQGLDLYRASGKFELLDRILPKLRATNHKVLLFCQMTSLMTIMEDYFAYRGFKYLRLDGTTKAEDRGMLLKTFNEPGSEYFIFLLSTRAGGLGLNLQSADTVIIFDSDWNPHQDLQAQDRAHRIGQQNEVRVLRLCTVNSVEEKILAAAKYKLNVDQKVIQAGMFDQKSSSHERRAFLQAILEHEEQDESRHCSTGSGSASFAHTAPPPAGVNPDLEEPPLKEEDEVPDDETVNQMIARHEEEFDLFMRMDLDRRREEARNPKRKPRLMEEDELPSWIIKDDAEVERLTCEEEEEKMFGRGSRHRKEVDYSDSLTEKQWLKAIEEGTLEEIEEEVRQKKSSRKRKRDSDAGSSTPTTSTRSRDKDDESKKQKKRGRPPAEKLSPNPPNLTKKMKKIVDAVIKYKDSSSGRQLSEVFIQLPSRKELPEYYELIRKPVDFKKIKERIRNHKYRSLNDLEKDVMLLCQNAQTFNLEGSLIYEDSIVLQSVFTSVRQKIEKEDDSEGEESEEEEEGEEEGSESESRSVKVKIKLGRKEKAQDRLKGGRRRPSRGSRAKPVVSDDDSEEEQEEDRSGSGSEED
Sequence of SMARCA2 (P51531 whole entry): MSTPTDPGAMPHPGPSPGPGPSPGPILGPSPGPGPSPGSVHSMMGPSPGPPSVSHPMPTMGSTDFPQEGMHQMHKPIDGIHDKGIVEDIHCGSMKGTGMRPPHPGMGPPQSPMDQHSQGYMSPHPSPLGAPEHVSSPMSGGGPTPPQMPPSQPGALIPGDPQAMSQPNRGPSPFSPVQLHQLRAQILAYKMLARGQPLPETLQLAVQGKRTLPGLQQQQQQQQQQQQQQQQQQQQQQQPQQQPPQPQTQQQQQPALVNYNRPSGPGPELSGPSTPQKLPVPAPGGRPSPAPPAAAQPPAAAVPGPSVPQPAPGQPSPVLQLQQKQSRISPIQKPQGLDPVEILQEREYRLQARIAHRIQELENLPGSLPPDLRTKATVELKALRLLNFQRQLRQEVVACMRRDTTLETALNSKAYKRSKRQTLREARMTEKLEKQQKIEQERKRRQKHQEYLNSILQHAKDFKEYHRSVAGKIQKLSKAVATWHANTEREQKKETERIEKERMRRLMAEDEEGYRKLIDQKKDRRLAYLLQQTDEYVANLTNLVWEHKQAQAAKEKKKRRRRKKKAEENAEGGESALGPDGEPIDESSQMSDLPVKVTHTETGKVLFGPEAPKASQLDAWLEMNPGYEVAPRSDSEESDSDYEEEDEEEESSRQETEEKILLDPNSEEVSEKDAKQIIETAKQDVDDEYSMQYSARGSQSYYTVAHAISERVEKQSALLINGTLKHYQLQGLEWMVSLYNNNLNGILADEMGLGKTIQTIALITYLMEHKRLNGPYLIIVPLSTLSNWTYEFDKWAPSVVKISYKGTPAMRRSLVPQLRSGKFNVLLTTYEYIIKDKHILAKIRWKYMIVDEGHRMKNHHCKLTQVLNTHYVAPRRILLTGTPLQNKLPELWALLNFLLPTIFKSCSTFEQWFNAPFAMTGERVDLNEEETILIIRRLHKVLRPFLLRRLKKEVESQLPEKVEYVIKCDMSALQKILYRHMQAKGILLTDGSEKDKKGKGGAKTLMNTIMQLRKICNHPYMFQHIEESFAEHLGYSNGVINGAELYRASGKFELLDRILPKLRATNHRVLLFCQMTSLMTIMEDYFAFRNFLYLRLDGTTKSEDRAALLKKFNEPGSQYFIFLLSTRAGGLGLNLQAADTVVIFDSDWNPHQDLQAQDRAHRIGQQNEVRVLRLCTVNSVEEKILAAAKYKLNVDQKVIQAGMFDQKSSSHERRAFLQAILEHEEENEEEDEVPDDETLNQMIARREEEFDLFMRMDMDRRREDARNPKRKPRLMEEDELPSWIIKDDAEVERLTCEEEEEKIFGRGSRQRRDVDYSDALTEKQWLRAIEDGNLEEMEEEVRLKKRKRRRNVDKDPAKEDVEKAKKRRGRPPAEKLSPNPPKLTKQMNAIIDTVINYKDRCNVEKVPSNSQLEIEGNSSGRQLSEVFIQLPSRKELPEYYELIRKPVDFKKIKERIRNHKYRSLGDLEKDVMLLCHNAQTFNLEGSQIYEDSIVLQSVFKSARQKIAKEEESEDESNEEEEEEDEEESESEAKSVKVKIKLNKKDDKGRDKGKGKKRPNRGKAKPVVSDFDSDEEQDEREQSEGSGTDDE

DC50 (SMARCA2) | Dmax (SMARCA2) | DC50 (SMARCA4) | Dmax (SMARCA4) | Compound
< 100 nM | > 90% | 100 to 500 nM | 50 to 69% | Cc1ncsc1-c1ccc([C@H](CN2CCOCC2)NC(=O)[C@@H]2C[C@@H](O)CN2C(=O)[C@H](c2cc(N3CCC(c4ccc5c(c4)C(C)(C)c4nc(=O)c6c(Cl)cccc6n4-5)CC3)no2)C(C)C)cc1 [Compound B109, (2S,4R)-1-(2-(3-(4-(4-chloro-7,7-dimethyl-5-oxo-5,7-dihydroindolo[1,2-a]quinazolin-9-yl)piperidin-1-yl)isoxazol-5-yl)-3-methylbutanoyl)-4-hydroxy-N—((R)-1-(4-(4-methylthiazol-5-yl)phenyl)-2-morpholinoethyl)pyrrolidine-2-carboxamide]
< 100 nM | > 90% | < 100 nM | 70 to 90% | Cc1ncsc1-c1ccc([C@H](CN2CCOCC2)NC(=O)[C@@H]2C[C@@H](O)CN2C(=O)[C@@H](c2cc(N3CCC(c4ccc5c(c4)C(C)(C)c4nc(=O)c6c(Cl)cccc6n4-5)CC3)no2)C(C)C)cc1 [Compound B110, (2S,4R)-1-(2-(3-(4-(4-chloro-7,7-dimethyl-5-oxo-5,7-dihydroindolo[1,2-a]quinazolin-9-yl)piperidin-1-yl)isoxazol-5-yl)-3-methylbutanoyl)-4-hydroxy-N—((R)-1-(4-(4-methylthiazol-5-yl)phenyl)-2-morpholinoethyl)pyrrolidine-2-carboxamide]
< 100 nM | > 90% | < 100 nM | 70 to 90% | Cc1ncsc1-c1ccc([C@H](CN2CCOCC2)NC(=O)[C@@H]2C[C@@H](O)CN2C(=O)C(c2cc(N3CCC(CN4CCC(c5ccc6c(c5)-n5c(nc(=O)c7c(Cl)cccc75)C6(C)C)CC4)CC3)no2)C(C)C)cc1 (stereo partly drawn) [Compound B115, (2S,4R)-1-(2-(3-(4-((4-(4-chloro-7,7-dimethyl-5-oxo-5,7-dihydroindolo[1,2-a]quinazolin-10-yl)piperidin-1-yl)methyl)piperidin-1-yl)isoxazol-5-yl)-3-methylbutanoyl)-4-hydroxy-N-((R)-1-(4-(4-methylthiazol-5-yl)phenyl)-2-morpholinoethyl)pyrrolidine-2-carboxamide]

The remaining lines, values behind:

Compound | DC50 (SMARCA2) | Dmax (SMARCA2) | DC50 (SMARCA4) | Dmax (SMARCA4)
Cc1ncsc1-c1ccc([C@H](CN2CCOCC2)NC(=O)[C@@H]2C[C@@H](O)CN2C(=O)[C@H](C(C)C)n2cc([C@H]3CC[C@H](CN4CCC(c5ccc6c(c5)-n5c(nc(=O)c7c(Br)cccc75)C65CCCCC5)CC4)CC3)nn2)cc1 [Compound B106, (2S,4R)-1-((S)-2-(4-((1r,4S)-4-((4-(4′-bromo-5′-oxo-5′H-spiro[cyclohexane-1,7′-indolo[1,2-a]quinazolin]-10′-yl)piperidin-1-yl)methyl)cyclohexyl)-1H-1,2,3-triazol-1-yl)-3-methylbutanoyl)-4-hydroxy-N-((R)-1-(4-(4-methylthiazol-5-yl)phenyl)-2-morpholinoethyl)pyrrolidine-2-carboxamide] | < 100 nM | > 90% | < 100 nM | > 90%
Cc1ncsc1-c1ccc([C@H](C)NC(=O)[C@@H]2C[C@@H](O)CN2C(=O)[C@H](C(C)C)n2cc([C@H]3CC[C@H](CN4CCC(c5cccc6c5C(C)(C)c5nc(=O)c7c(Cl)cccc7n5-6)CC4)CC3)nn2)cc1 [Compound B107, (2S,4R)-1-((S)-2-(4-((1r,4S)-4-((4-(4-chloro-7,7-dimethyl-5-oxo-5,7-dihydroindolo[1,2-a]quinazolin-8-yl)piperidin-1-yl)methyl)cyclohexyl)-1H-1,2,3-triazol-1-yl)-3-methylbutanoyl)-4-hydroxy-N-((S)-1-(4-(4-methylthiazol-5-yl)phenyl)ethyl)pyrrolidine-2-carboxamide] | < 100 nM | > 90% | < 100 nM | > 90%
C[C@H](NC(=O)[C@@H]1C[C@@H](O)CN1C(=O)[C@@H](n1cc(C2CCC(CN3CCC(c4ccc5c(c4)-n4c(nc(=O)c6c(Cl)cccc64)C54CCCCC4)CC3)CC2)nn1)C(C)(C)C)c1ccc(-c2scnc2CCCN2CCOCC2)cc1 (stereo partly drawn) [Compound B108, (2S,4R)-1-((S)-2-(4-((11,4S)-4-((4-(4′-chloro-5′-oxo-5′H-spiro[cyclohexane-1,7′-indolo[1,2-a]quinazolin]-10′-yl)piperidin-1-yl)methyl)cyclohexyl)-1H-1,2,3-triazol-1-yl)-3,3-dimethylbutanoyl)-4-hydroxy-N-((S)-1-(4-(4-(3-morpholinopropyl)thiazol-5-yl)phenyl)ethyl)pyrrolidine-2-carboxamide] | 100 to 500 nM | > 90% | 100 to 500 nM | 50 to 69%
Cc1ncsc1-c1ccc([C@H](C)NC(=O)[C@@H]2C[C@@H](O)CN2C(=O)[C@@H](c2cc(N3CCC(CN4CCN(c5ccc6c(c5)-n5c(nc(=O)c7c(Cl)cccc75)C6(C)C)CC4)CC3)no2)C(C)C)cc1 [Compound B111, (2S,4R)-1-((R)-2-(3-(4-((4-(4-chloro-7,7-dimethyl-5-oxo-5,7-dihydroindolo[1,2-a]quinazolin-10-yl)piperazin-1-yl)methyl)piperidin-1-yl)isoxazol-5-yl)-3-methylbutanoyl)-4-hydroxy-N-((S)-1-(4-(4-methylthiazol-5-yl)phenyl)ethyl)pyrrolidine-2-carboxamide] | < 100 nM | > 90% | < 100 nM | 50 to 69%
Cc1ncsc1-c1ccc(C2(NC(=O)[C@@H]3C[C@@H](O)CN3C(=O)[C@@H](n3cc([C@H]4CC[C@H](CN5CCC(c6ccc7c(c6)-n6c(nc(=O)c8c(Cl)cccc86)C7(C)C)CC5)CC4)nn3)C(C)(C)C)CNC2)cc1 [Compound B113, (2S,4R)-1-((S)-2-(4-((1r,4S)-4-((4-(4-chloro-7,7-dimethyl-5-oxo-5,7-dihydroindolo[1,2-a]quinazolin-10-yl)piperidin-1-yl)methyl)cyclohexyl)-1H-1,2,3-triazol-1-yl)-3,3-dimethylbutanoyl)-4-hydroxy-N-(3-(4-(4-methylthiazol-5-yl)phenyl)azetidin-3-yl)pyrrolidine-2-carboxamide] | 100 to 500 nM | > 90% | 501 to 1000 nM | < 50%
Cc1ncsc1-c1ccc([C@H](C)NC(=O)[C@@H]2C[C@@H](O)CN2C(=O)[C@H](C(C)C)n2cc(C3CCC(N4CCC(c5cccc6c5C(C)(C)c5nc(=O)c7c(Cl)cccc7n5-6)CC4)CC3)nn2)cc1 (stereo partly drawn) [Compound B114, (2S,4R)-1-((S)-2-(4-(4-(4-(4-chloro-7,7-dimethyl-5-oxo-5,7-dihydroindolo[1,2-a]quinazolin-8-yl)piperidin-1-yl)cyclohexyl)-1H-1,2,3-triazol-1-yl)-3-methylbutanoyl)-4-hydroxy-N-((S)-1-(4-(4-methylthiazol-5-yl)phenyl)ethyl)pyrrolidine-2-carboxamide] | < 100 nM | 70 to 90% | 100 to 500 nM | < 50%
Cc1ncsc1-c1ccc([C@H](C)NC(=O)[C@@H]2C[C@@H](O)CN2C(=O)[C@@H](c2cc(OCCc3cccc4c3C(C)(C)c3nc(=O)c5c(Cl)cccc5n3-4)no2)C(C)C)cc1 [Compound B116, (2S,4R)-1-((R)-2-(3-(2-(4-chloro-7,7-dimethyl-5-oxo-5,7-dihydroindolo[1,2-a]quinazolin-8-yl)ethoxy)isoxazol-5-yl)-3-methylbutanoyl)-4-hydroxy-N—((S)-1-(4-(4-methylthiazol-5-yl)phenyl)ethyl)pyrrolidine-2-carboxamide] | < 100 nM | 70 to 90% | > 1000 nM | < 50%
